For data set [1], the system named is Akt/FoxO3a/Bim signaling pathway in CCRF-CEM cells. Briefly: Western blot of Akt/FoxO3a/Bim signaling pathway proteins in CCRF-CEM cells. Conditions: for expression of p-Akt1 / expression of p-Akt2: CCRF-CEM, inhibitors 0.8 μM, FIG. 5A; for expression of phosphorylated FoxO3a, inhibitor plus dexamethasone: 2I. Format: cell-based, human. The procedure: (§1) The control group was not added with any reagents. All experiments were performed in triplicate.
Protein detection by Western blot: in the examples of the present invention, Akt antibody (rabbit derived), phosphorylated Akt antibody (rabbit derived), FoxO3a antibody (rabbit derived), phosphorylated FoxO3a antibody (rabbit derived) and GAPDH antibody (rabbit derived) and secondary antibodies were all purchased from CST company. The cells were collected in a centrifuge tube and centrifuged at 1000 rpm, the supernatant was discarded and the cells were washed twice with PBS pre-cold at 4° C.; cell lysis buffer (150 mM NaCl, 1% NP-40, 0.1% SDS, 2 μg/ml Aprotinin, 2 μg/ml Leupeptin, 1 mM PMSF, 1.5 mM EDTA, 1 mM sodium vanadate) was added and the cells were lysed on ice for 40 minutes, the cell lysate was centrifuged at 20000 rpm, 4° C. for 15 minutes, and the supernatant was collected; a protein loading buffer for sodium dodecyl sulfate polyacrylamide (SDS-PAGE) gel electrophoresis (1.25 mL 1MTris-HCl (pH6.8), 0.5 g SDS, 25 mg BPB, 2.5 mL glycerol, 5 mL deionized water) was added, followed by boiling for 5 minutes to denature proteins; the loading buffer containing denatured proteins was applied to 10% SDS-PAGE for electrophoresis at 120 V, and then transferred to a PVDF membrane (Sangon Biotech (Shanghai) Co., Ltd.) at 130 V for 1.5 hours; after the membrane transfer was completed, the PVDF membrane was immediately rinsed with a Western washing solution (150 mmol/L NaCl, 50 mmol/L Tris-HCl (pH 7.5)) for 1-2 minutes; added with 5% non-fat milk powder (Shanghai Biotechnology Co., Ltd.), agitated gently and then blocked at room temperature for 60 minutes; a primary antibody diluted appropriately with 5% non-fat milk powder was added, and incubated overnight at room temperature with gentle agitating; the primary antibody was recovered and the membrane was washed three times with the washing solution for 5-10 minutes each; a horseradish peroxidase-labeled secondary antibody diluted appropriately with the Western washing solution was added, and incubated at room temperature for 1 hour with gentle agitating; the secondary antibody was recovered and the membrane was washed three times with the Western washing solution for 5-10 minutes each. An appropriate amount of developing solution (DAB 4 mg, 30% hydrogen peroxide 15 μL, 0.01 M Tris-Cl (pH 7.5) 5 mL) was dropped on the PVDF membrane, the image was detected using a bioluminescence image colorimeter and a gel imaging system (Thermo company), and the quantitative analysis of bands was performed using Image Lab software.
(§2) The cells were cultured in RPMI 1640 complete medium (Gibco company) containing 10% fetal bovine serum (FBS, Gibco company) in an incubator (Thermo company) at 5% CO2 and 37° C. until reaching logarithmic growth phase, then different concentrations of inhibitors and/or dexamethasone/ethanol/DMSO were added to the culture medium, followed by further culturing (for addition of dexamethasone/ethanol/DMSO, for 48 hours, and for addition of inhibitor, for 24 hours), and apoptosis was detected by Annexin V-FITC PI double staining and proteins were detected by Western blot, as described in Example 1.
Methods: CCRF-CEM cells were cultured in RPMI 1640 complete medium (Gibco company) containing 10% fetal bovine serum (FBS, Gibco company) in an incubator (Thermo company) at 5% CO2 and 37° C. until reaching logarithmic growth phase, then DMSO, dexamethasone and different inhibitors (DMSO: 0.1%, dexamethasone: 0.1 μM, inhibitors: 0.8 μM) were added to the culture medium, and further cultured (for addition of dexamethasone or DMSO, for 48 hours, and for addition of inhibitors, for 24 hours), and the proteins were detected by Western blot, as described in Example 1.
On the technique in general: A western blot detects proteins with antibodies after separation by electrophoresis.

In data set [2] the test system is Akt/FoxO3a/Bim proteins in L-02 cells. Kind of data set: Western blot of Akt/FoxO3a/Bim proteins in L-02 cells. To be noted: pretreated with inhibitor 0.8 μM; FIG. 6B. Format: cell-based, human. As to the method: Protein detection by Western blot: in the examples of the present invention, Akt antibody (rabbit derived), phosphorylated Akt antibody (rabbit derived), FoxO3a antibody (rabbit derived), phosphorylated FoxO3a antibody (rabbit derived) and GAPDH antibody (rabbit derived) and secondary antibodies were all purchased from CST company. […] An appropriate amount of developing solution (DAB 4 mg, 30% hydrogen peroxide 15 μL, 0.01 M Tris-Cl (pH 7.5) 5 mL) was dropped on the PVDF membrane, the image was detected using a bioluminescence image colorimeter and a gel imaging system (Thermo company), and the quantitative analysis of bands was performed using Image Lab software.

In data set [3] the test system is L-02 human-derived healthy liver cell line. Briefly: CCK-8 viability of healthy liver cells L-02. To be noted: FIG. 6A; for damage to liver cells: DEX 0.1 μM, inhibitors 0.8 μM.
In a further data set the test system is Jurkat cells. Briefly: Apoptosis by Annexin V-FITC PI double staining, Jurkat. The class given is cell-based, human. Conditions: for apoptosis of Jurkat cells, inhibitor in combination with dexamethasone: compared to the only/single dexamethasone group, FIG. 2F, 4J; for apoptosis of siRNA-transfected Jurkat cells induced by dexamethasone: compared to the dexamethasone group, FIG. 5H. The procedure: (§3) Apoptosis was detected by Annexin V-FITC PI double staining method (flow cytometry kit (FITC, PI double staining), Sangon Biotech (Shanghai) Co., Ltd.)), and the collected cells were washed once with phosphate buffered saline (PBS) (135 mM NaCl, 2.7 mM KCl, 1.5 mM KH2PO4 and 8 mM K2HPO4, pH 7.2); the 4× binding buffer was diluted to a 1× binding buffer with deionized water, then the cells were resuspended with 195 ul of the 1× binding buffer at a cell density of 2-5×10^5/ml; 5 μl of Annexin V-FITC was added to the 195 μl of the cell resuspension and mixed, and incubated in dark at room temperature for 10 minutes; the cells were washed once with 200 μl of the 1× binding buffer, and then resuspended in 190 μl of the 1× binding buffer; 10 μl of propidium iodide (20 μg/ml) was added. A flow cytometry device (Beckman company) was used for detection, and the rate of apoptosis was analyzed using Summit software.
as §2
(§4) As described in Example 3, the cells were cultured in RPMI 1640 complete medium containing 10% fetal bovine serum under 5% CO2 and 37° C. until reaching logarithmic growth phase, and then dexamethasone and different concentrations of Akt inhibitor were added to the culture medium, followed by further culture (for addition of dexamethasone/DMSO, for 48 hours, and for addition of the inhibitor, for 24 hours), the apoptosis was detected by Annexin V-FITC PI double staining method and proteins were detected by Western blot as described in Example 1 as well as the cell viability was detected by CCK-8 method.
The transfected cells were selected and passaged for 3 to 5 passages after resuscitation, with Interferin™ as transfection reagent, and the transfection procedure was performed in accordance with the instruction of the transfection reagent. In short, the cells of logarithmic growth phase were plated at 2×10^5/well, the cells were replaced with fresh complete medium (free of antibiotics) during transfection, siRNA was diluted with Opti-MEM and added with an appropriate amount of […]in™ and mixed, incubated at room temperature for 10 minutes prior to being added dropwise to the cells, and the cells were harvested at appropriate time. The cells were transfected with green fluorescein-labeled siRNA (FAM-siRNA) (siRNA at a final concentration of 20 μM, 1.25 μl/well), and the transfection efficiency was observed using a fluorescence microscope 24 hours later. The dexamethasone group was added 24 hours after transfection, followed by culture for further 24 hours, and then the cells were collected for observation; and the equal amount of anhydrous ethanol was added to the control group.

Data set [4] has as its system Daudi cells. Kind of data set: Cell viability by CCK-8 and combination index, Daudi. The class given is cell-based, human. Conditions: B lymphoma cells; as shown in Table 1. As to the method: as §4
The inhibitory effect of two drugs (dexamethasone and an inhibitor) alone and in combination on various lymphocyte lines was observed by CCK-8 method (CCK-8 kit), and then the half-inhibitory concentration of each drug was calculated using the median effect equation, and the combination index (CI) of the two drugs used in combination was calculated using CompuSyn software.
(1) the lymphocytes of logarithmic growth phase were taken and made to a cell suspension of 5×10^4/mL, a blank control group (5 wells), a dexamethasone group (3 wells for each concentration, triplicates), a single inhibitor group (3 wells for each concentration, triplicates), a dexamethasone plus inhibitor group (3 wells for each combined concentration, triplicates) were prepared, 180 μL of the suspension was seeded to each well of a 96-well plate, and incubated for 24 hours in an incubator at 5% CO2 and 37° C.
Based on the drug resistance of cells, the ratio of two drugs was fixed. The dexamethasone group was cultured for 48 hours while the inhibitor group was cultured for 24 hours.
(3) 10 μl of CCK-8 was added to each well, and cultured for 2 hours, and the optical density (OD) was measured at 450 nm using an automatic microplate reader, and the proliferation inhibition rate of the drug on cell was calculated.
(4) the proliferation inhibition rate was calculated according to the following equation: cell proliferation inhibition rate=(1-average OD value in the test group/average OD value in the control group)×100%, and the effect of interaction between the two drugs was analyzed by Chou-Talalay combination index method.

Data set [5] deals with Daudi cells. Briefly: Apoptosis by Annexin V-FITC PI double staining, Daudi. Format: cell-based, human. To be noted: compared to the dexamethasone group; FIG. 2K, 4L. The procedure:
as §3
as §2, with “1. […]” for “1.”

Data set [6] in a line: Toxicity in tumor-bearing nude mice (peripheral blood test, organ pathology).
A further data set has as its system CCRF-CEM cells. Kind of data set: Apoptosis by Annexin V-FITC PI double staining (flow cytometry), CCRF-CEM. Format: cell-based, human. Conditions: compared to dexamethasone alone; FIG. 2A: Akt inhibitor 1 μM, dexamethasone 1 μM, LY294002 30 μM; FIG. 2G, 2J, 2K. As to the method:
as §1, §3, §2, §4
(In general: In flow cytometry, cells or beads pass a laser one at a time.)

[7] abbreviates: compared to the only dexamethasone group, FIG. 2B, 2H.

Turning to `NC1(Cc2ccc(Cl)cc2)CCN(c2ncnc3[nH]ccc23)CC1` [CCT128930], in data set [1], the “expression of p-Akt1” value was “increased” and the “expression of p-Akt2” value is given as “increased”. Further, the “expressions of p-Akt1 and p-Akt2 in L-02 cells” value in data set [2] was “correspondingly increased”. In data set [3], the “damage to liver cells” value was “least damage” and the “recovery of liver cell activity” value is “gradually recovered after 6 hours of administration”. The molecule also registered a liver cell activity in data set [3] (after six hours of administration) of 56.1%. Also, the “apoptosis of Jurkat cells, inhibitor in combination with dexamethasone” value with Jurkat cells is “significantly increase”. For the same molecule, in the data set with Daudi cells [4], the “effect of inhibitor in combination with dexamethasone in B lymphoma cells (in words)” value is given as “additive effect”. Moreover, the “apoptosis of Daudi cells, inhibitor in combination with dexamethasone” value with Daudi cells [5] was “significantly increase”.
Regarding `Cc1[nH]nc2ccc(-c3cncc(OC[C@@H](N)Cc4ccccc4)c3)cc12` [A-674563], in data set [1], the “expression of p-Akt1” value is “effectively inhibited” and the “expression of p-Akt2” value is reported as “compensatory increase”. The “expressions of p-Akt1 and p-Akt2 in L-02 cells” value in data set [2] is “correspondingly increased”. Further, the “liver pathology (HE staining)” value in data set [6] (7-day administration, FIG. 8A, 8B) is on record as “did not cause morphological changes of the liver tissues”. Besides, the “level of TBIL” value in data set [6] (compared to the NC group, FIG. 6I) is “significantly increased”. Moreover, the “level of peripheral blood AST” value in data set [6] (compared to the normal saline group (NC), FIG. 3F, 6H) is “significantly increased”. In data set [3], the “damage to liver cells” value is “most serious damage” and the “recovery of liver cell activity” value is “did not recover within 48-hour”. The “apoptosis of Jurkat cells, inhibitor in combination with dexamethasone” value in the data set on Jurkat cells is reported as “significantly increase”. Further, the “effect of inhibitor in combination with dexamethasone in B lymphoma cells (in words)” value with Daudi cells [4] was “low degree of synergistic effect”. In the data set on Daudi cells [5], the “apoptosis of Daudi cells, inhibitor in combination with dexamethasone” value is recorded as “significantly increase”.
As to “Akt2 siRNA: siRNA, SEQ ID NO: 7 GGUUCUUCCUCAGCAUCAATT and SEQ ID NO: 8 UUGAUGCUGAGGAAGAACCTT (chain 1 GGUUCUUCCUCAGCAUCAANN; chain 2 UUGAUGCUGAGGAAGAACCNN; listed as RNA, chemistry not given here)”, the “apoptosis of siRNA-transfected Jurkat cells induced by dexamethasone” value in the data set with Jurkat cells is listed as “significantly increased”.
Regarding `OCC1OC(O)CC(O)C1O` (stereo not shown) [2-DG], the “total FoxO3a expression, inhibitor plus dexamethasone” value in data set [1] (compared to dexamethasone alone, FIG. 2H) is “increased”. Besides, in data set [1] (setting [7]), the “expression of pro-apoptosis factor Bim, inhibitor plus dexamethasone” value is “significantly up-regulated” and the “expression of phosphorylated FoxO3a, inhibitor plus dexamethasone” value is reported as “decreased”. The “apoptosis of CCRF-CEM cells induced by dexamethasone, inhibitor plus dexamethasone” value with CCRF-CEM cells is recorded as “significantly increased”.
With “Akt1 siRNA: siRNA, SEQ ID NO: 5 GGCCCAACACCUUCAUCAUTT and SEQ ID NO: 6 AUGAUGAAGGUGUUGGGCCTT (chain 1 GGCCCAACACCUUCAUCAUNN; chain 2 AUGAUGAAGGUGUUGGGCCNN; listed as RNA, chemistry not given here)”, the “apoptosis of siRNA-transfected Jurkat cells induced by dexamethasone” value in the data set on Jurkat cells is “not increased”.
With `C[C@H](NC(=O)Cc1cc(F)cc(F)c1)C(=O)N[C@H](C(=O)OC(C)(C)C)c1ccccc1` [dapt], the “expression of phosphorylated FoxO3a, inhibitor plus dexamethasone” value in data set [1] (setting [7]) was “significantly reduced”. Also, in the data set with CCRF-CEM cells, the “apoptosis of CCRF-CEM cells induced by dexamethasone, inhibitor plus dexamethasone” value is recorded as “significantly increased”.

The values above are taken from patent US10849906B2, “Use of Akt2 in diagnosis and treatment of tumor” (priority 2015, dated 2020).
